Legend:
Format in all cases: functional
[1] = system: SF-539; test: Anticancer activity against Homo sapiens (human) SF539 cells after 48 hr by SRB assay; details: SF-539, 48 h
[2] = system: SNB-19; test: Anticancer activity against Homo sapiens (human) SNB19 cells after 48 hr by SRB assay; details: SNB-19, 48 h
[3] = system: SK-OV-3; test: Anticancer activity against Homo sapiens (human) SKOV3 cells after 48 hr by SRB assay; details: SK-OV-3, 48 h
[4] = system: SR; test: Anticancer activity against Homo sapiens (human) SR cells after 48 hr by SRB assay; details: for CC50: read-out: LC50 (the source's name)
[5] = system: RPMI-8226; test: Anticancer activity against Homo sapiens (human) RPMI8226 cells after 48 hr by SRB assay; details: RPMI-8226, 48 h; for CC50: read-out: LC50 (the source's name)
[6] = system: SK-MEL-28; test: Anticancer activity against Homo sapiens (human) SK-MEL-28 cells after 48 hr by SRB assay; details: SK-MEL-28, 48 h
[7] = system: NCI-H226; test: Anticancer activity against Homo sapiens (human) NCI-H226 cells after 48 hr by SRB assay; details: NCI-H226, 48 h
[8] = system: CCRF-CEM; test: Anticancer activity against Homo sapiens (human) CCRF-CEM cells after 48 hr by SRB assay
[9] = system: MCF7; test: Anticancer activity against Homo sapiens (human) MCF7 cells after 48 hr by SRB assay; details: MCF7, 48 h; for CC50: read-out: LC50 (the source's name)
[10] = system: PC-3; test: Anticancer activity against Homo sapiens (human) PC3 cells after 48 hr by SRB assay; details: PC-3, 48 h
[11] = system: HOP-92; test: Anticancer activity against Homo sapiens (human) HOP92 cells after 48 hr by SRB assay; details: HOP-92, 48 h; for CC50: read-out: LC50 (the source's name)
[12] = system: RXF 393; test: Anticancer activity against Homo sapiens (human) RXF393 cells after 48 hr by SRB assay; details: RXF 393, 48 h
[13] = system: HCC 2998; test: Anticancer activity against Homo sapiens (human) HCC2998 cells after 48 hr by SRB assay; details: HCC 2998, 48 h

Compound	GI50 [1]	LC50 (concentration killing 50% of cells) [1]	TGI [1]	GI50 [2]	LC50 [2]	TGI [2]	GI50 [3]	LC50 (50% lethal concentration) [3]	TGI [3]	GI50 [4]	TGI [4]	CC50 [4]	GI50 [5]	TGI [5]	CC50 [5]	GI50 [6]	LC50 [6]	TGI [6]	GI50 [7]	LC50 [7]	other results
Cc1ccc(Nn2c(SCC(=O)Nc3nc(-c4ccccc4)cs3)nc(C)c2C)cc1	4.68 µM	> 100 µM	35.2 µM	7.49 µM	> 100 µM	> 100 µM	10.6 µM	> 100 µM	> 100 µM												
COc1ccc(Nn2c(SCC(=O)Nc3nc(-c4ccc(Cl)cc4)cs3)nc(C)c2C)cc1	4.15 µM	> 100 µM	> 100 µM	6.2 µM	> 100 µM	> 100 µM	4.24 µM	> 100 µM	> 100 µM	7.02 µM	> 100 µM	> 100 µM	5.8 µM	> 100 µM	> 100 µM	18 µM	> 100 µM	> 100 µM	3.26 µM	> 100 µM	TGI [7]: > 100 µM; GI50 [8]: 3.82 µM; LC50 (concentration killing 50% of cells) [8]: > 100 µM; TGI [8]: > 100 µM; GI50 [9]: 3.36 µM; TGI [9]: 25.5 µM; CC50 [9]: > 100 µM; GI50 [10]: 2.65 µM; LC50 (concentration killing 50% of cells) [10]: > 100 µM; TGI [10]: > 100 µM; GI50 [11]: 2.42 µM; TGI [11]: 7.8 µM; CC50 [11]: > 100 µM; GI50 [12]: 3.53 µM; LC50 (50% lethal concentration) [12]: > 100 µM; TGI [12]: 9.64 µM; GI50 [13]: 3.07 µM; LC50 [13]: > 100 µM; TGI [13]: 9.91 µM
Cc1nc(SCC(=O)Nc2nc(-c3ccc(Cl)cc3)cs2)n(Nc2ccccc2)c1C	1.9 µM	9.64 µM	4.27 µM	9.41 µM	61.7 µM	24.6 µM	5.91 µM	47.4 µM	19.8 µM	3.81 µM	> 100 µM	> 100 µM	3.55 µM	> 100 µM	> 100 µM	10.1 µM	59.7 µM	24.6 µM	3.37 µM	93.9 µM	TGI [7]: 18.8 µM; GI50 [8]: 5.49 µM; LC50 (concentration killing 50% of cells) [8]: > 100 µM; TGI [8]: > 100 µM; GI50 [9]: 2.94 µM; TGI [9]: 11.4 µM; CC50 [9]: 52.2 µM; GI50 [10]: 2.34 µM; LC50 (concentration killing 50% of cells) [10]: 38.4 µM; TGI [10]: 11 µM; GI50 [11]: 1.61 µM; TGI [11]: 6.89 µM; CC50 [11]: 38.9 µM; GI50 [12]: 2.97 µM; LC50 (50% lethal concentration) [12]: 26.8 µM; TGI [12]: 7.33 µM; GI50 [13]: 10.6 µM; LC50 [13]: 82.6 µM; TGI [13]: 29.5 µM
